How the values were obtained:
[1] = Phase transition temperatures (TM) of phospholipids; type: physicochemical; settings: for TM (phase transition temperature): phosphatidylcholine/phosphatidyldiglycerol/phosphatidyltriglycerol/phosphatidyltetraglycerol with the given fatty acid pattern; for main (phase) transition temperature: pure lipid
Experimental: By selecting a phosphatidylcholine having a suitable main transition temperature, the stimuli-sensitive nanocarrier system, in particular the thermosensitive liposome, can be customised. Table 1 gives main transition temperatures (TM) of phosphatidylcholines whose main transition temperatures are in the range of from 0 to 80° C.
The fatty acid chains and their distribution over positions 1 and 2 of the glycerol molecule dominate the physical properties of the phospholipids. The phase transition temperature is independent of whether the phospholipid is the phosphatidylcholine, the phosphatidyldiglycerol, the phosphatidyltriglycerol or the phosphatidyltetraglycerol.

[2] = tissue depth of 2000-3000 μm; cited from earlier work
[3] = Stability and circulation of liposomes in serum / bloodstream (animal experiments); type: in vivo; settings: lipid alone in liposomes
Experimental: By using phosphatidyloligoglycerols, it has been possible to prepare thermosensitive liposomes having a prolonged blood circulation time (WO 2002/064116 and WO 2004/026282). […] The majority of the liposomes remain in the blood circulation over a period of 2 hours and are therefore available for heat-controlled release of the active ingredient. Owing to the rapid release-kinetics of these liposomes with heat-induced release of the active ingredient within a few seconds, preferably <15 seconds, more preferably <10 seconds, a previously enclosed active ingredient can be released immediately by targeted heating of the liposomes to temperatures >39° C., preferably 40-42° C.
The main transition temperature for (1,2-dipalmitoyl)-phosphatidylcholine is approximately 41° C. The purely physical requirements for clinical use in liposomes can accordingly be fulfilled by this phosphatidylcholine. However, the serum stability in the bloodstream of humans and animals that is required for clinical applications is lacking. (1,2-Dipalmitoyl)phosphatidylcholine alone is therefore not sufficient to achieve the therapeutic aims. […]
Enclosed active ingredients are only released when the temperature is increased locally to about 42° C. […]

Row | TM (phase transition temperature) [1] [°C] | SMILES | other results
1 | 46 | CCCCCCCCCCCCCCCCCC(=O)OCC(COC(=O)CCCCCCCCCCCCC)OP(=O)([O-])OCC[N+](C)(C)C (stereo not drawn) [1-stearoyl-3-myristoyl-, 1-stearoyl-3-myristoylglycero-2-phosphocholine] | –
2 | 80 | CCCCCCCCCCCCCCCCCCCCCCCC(=O)OCC(COP(=O)([O-])OCC[N+](C)(C)C)OC(=O)CCCCCCCCCCCCCCCCCCCCCCC (stereo not drawn) [1,2-dilignoceroyl-, 1,2-dilignoceroylglycero-3-phosphocholine] | –
3 | 56 | CCCCCCCCCCCCCCCCCC(=O)OCC(COP(=O)([O-])OCC[N+](C)(C)C)OC(=O)CCCCCCCCCCCCCCCCC (stereo not drawn) [1,2-distearoyl-, 1,2-distearoylglycero-3-phosphocholine] | main (phase) transition temperature [1]: 56 °C
4 | 66 | CCCCCCCCCCCCCCCCCCCC(=O)OC[C@H](COP(=O)([O-])OCC[N+](C)(C)C)OC(=O)CCCCCCCCCCCCCCCCCCC [1,2-diarachinoyl-, 1,2-diarachinoylglycero-3-phosphocholine] | –
5 | – | CO[C@@]12[C@H](COC(N)=O)C3=C(C(=O)C(C)=C(N)C3=O)N1C[C@@H]1N[C@@H]12 [mitomycin C] | dogs in which no further mitomycin C was detectable [2]: 18/24
6 | 75 | CCCCCCCCCCCCCCCCCCCCCC(=O)OCC(COP(=O)([O-])OCC[N+](C)(C)C)OC(=O)CCCCCCCCCCCCCCCCCCCCC (stereo not drawn) [1,2-dibehenoyl-, 1,2-dibehenoylglycero-3-phosphocholine] | –
7 | 33 | CCCCCCCCCCCCCCCCCC(=O)OCC(COP(=O)([O-])OCC[N+](C)(C)C)OC(=O)CCCCCCCCCCCCC (stereo not drawn) [1-stearoyl-2-myristoyl-, 1-stearoyl-2-myristoylglycero-3-phosphocholine] | –
8 | 19 | CCCCCCCCCCCCCC(=O)OCC(COC(=O)CCCCCCCCCCCCC)OP(=O)([O-])OCC[N+](C)(C)C [1,3-dimyristoyl-, 1,3-dimyristoylglycero-2-phosphocholine] | –
9 | 27 | CCCCCCCCCCCCCCCC(=O)OCC(COP(=O)([O-])OCC[N+](C)(C)C)OC(=O)CCCCCCCCCCCCC (stereo not drawn) [1-palmitoyl-2-myristoyl-, 1-palmitoyl-2-myristoylglycero-3-phosphocholine] | –
10 | 14 | CCCCCCCC/C=C\CCCCCCCC(=O)OC(COC(=O)CCCCCCCCCCCCCCCCCCCCC)COP(=O)([O-])OCC[N+](C)(C)C (stereo not drawn) [1-behenoyl-2-oleoyl-, 1-behenoyl-2-oleoylglycero-3-phosphocholine] | –
11 | 17 | CCCCCCCCCCCCCCCCCC(=O)OCC(COP(=O)([O-])OCC[N+](C)(C)C)OC(=O)CCCCCCCCCCC (stereo not drawn) [1-stearoyl-2-lauroyl-, 1-stearoyl-2-lauroylglycero-3-phosphocholine] | –
12 | 53 | CCCCCCCCCCCCCCCCCC(=O)OCC(COC(=O)CCCCCCCCCCCCCCCCC)OP(=O)([O-])OCC[N+](C)(C)C [1,3-distearoyl-, 1,3-distearoylglycero-2-phosphocholine] | –
13 | 7 | CCCCCCCC/C=C\CCCCCCCC(=O)O[C@H](COC(=O)CCCCCCCCCCCCCCCCC)COP(=O)([O-])OCC[N+](C)(C)C [1-stearoyl-2-oleoyl-, 1-stearoyl-2-oleoyl-3-phosphocholine] | –
14 | 11 | CCCCCCCCCCCCCCCC(=O)OCC(COP(=O)([O-])OCC[N+](C)(C)C)OC(=O)CCCCCCCCCCC (stereo not drawn) [1-palmitoyl-2-lauroyl-, 1-palmitoyl-2-lauroylglycero-3-phosphocholine] | –
15 | 37 | CCCCCCCCCCCCCCCC(=O)OC(COC(=O)CCCCCCCCCCCCC)COP(=O)([O-])OCC[N+](C)(C)C (stereo not drawn) [1-myristoyl-2-palmitoyl-, 1-myristoyl-2-palmitoylglycero-3-phosphocholine] | –
16 | 23 | CCCCCCCCCCCCCC(=O)OCC(COP(=O)([O-])OCC[N+](C)(C)C)OC(=O)CCCCCCCCCCCCC (stereo not drawn) [1,2-dimyristoyl-, 1,2-dimyristoylglycero-3-phosphocholine] | main (phase) transition temperature [1]: 23 °C
17 | 5 | CCCCCCCC/C=C\CCCCCCCC(=O)OC(COC(=O)CCCCCCCCCCCCCCC)COP(=O)([O-])OCC[N+](C)(C)C (stereo not drawn) [1-palmitoyl-2-oleoyl-, 1-palmitoyl-2-oleoylglycero-3-phosphocholine] | –
18 | 39 | CCCCCCCCCCCCCCCC(=O)OCC(COC(=O)CCCCCCCCCCCCCCC)OP(=O)([O-])OCC[N+](C)(C)C [1,3-dipalmitoyl-, 1,3-palmitoylglycero-2-phosphocholine] | –
19 | 42 | CCCCCCCCCCCCCCCCCC(=O)OC(COC(=O)CCCCCCCCCCCCC)COP(=O)([O-])OCC[N+](C)(C)C (stereo not drawn) [1-myristoyl-2-stearoyl-, 1-myristoyl-2-stearoylglycero-3-phosphocholine] | –
20 | 41 | CCCCCCCCCCCCCCCC(=O)OCC(COP(=O)([O-])OCC[N+](C)(C)C)OC(=O)CCCCCCCCCCCCCCC (stereo not drawn) [1,2-dipalmitoyl-, 1,2-dipalmitoylglycero-3-phosphocholine] | serum stability in the bloodstream of humans and animals [3]: lacking; main (phase) transition temperature ([1]; listed as (1,2-dipalmitoyl)-phosphatidylcholine): approximately 41 °C; main (phase) transition temperature ([1]; listed as dipalmitoyl-phosphatidylcholine): 41 °C
21 | 48 | CCCCCCCCCCCCCCCCCC(=O)OCC(COP(=O)([O-])OCC[N+](C)(C)C)OC(=O)CCCCCCCCCCCCCCC (stereo not drawn) [1-stearoyl-2-palmitoyl-, 1-stearoyl-2-palmitoylglycero-3-phosphocholine] | –
22 | 52 | CCCCCCCCCCCCCCCCCC(=O)OC(COC(=O)CCCCCCCCCCCCCCC)COP(=O)([O-])OCC[N+](C)(C)C (stereo not drawn) [1-palmitoyl-2-stearoyl-, 1-palmitoyl-2-stearoylglycero-3-phosphocholine] | –
